We go through ten molecules from US20230218710A1, “METHOD OF TREATING CORONAVIRUS INFECTIONS” (priority 2020, published 2023).

In one data set the target is human APJ (Homo sapiens, UniProt P35414). Description: cell-based. The following applies: CHO-K1, 1.5 h, read-out: Percent of Apelin-13 Control Activity. As to the method: The effect of the peptides on activation of Apelin Receptor (APJ) can be assessed using an assay to monitor β-Arrestin recruitment in cultured cells overexpressing APJ such as CHO-K1, derived from Chinese hamster ovary. β-Arrestin recruitment assays were performed by Eurofins-DiscoverX (Fremont, Calif.) using CHO-K1 AGTRL1 β-Arrestin cell line (co-expressing ProLink tagged human APJ and Enzyme Acceptor tagged β-Arrestin) and PathHunter detection kit. Peptides were initially prepared either as 10 mM stock in DMSO and used at a final concentration of 10 μM (0.1% DMSO). CHO-K1 AGTRL1 β-Arrestin cells were seed onto 384-well plates in standard medium. […] Following 90 min. incubation at 37° C., β-Arrestin recruitment in response to various treatments was quantified using a chemiluminescent complementation reporter assay to measure association of tagged human APJ (ProLink tag) and tagged β-Arrestin (Enzyme Acceptor tag).
human APJ, sequence (P32121 whole entry partner, one chain of several): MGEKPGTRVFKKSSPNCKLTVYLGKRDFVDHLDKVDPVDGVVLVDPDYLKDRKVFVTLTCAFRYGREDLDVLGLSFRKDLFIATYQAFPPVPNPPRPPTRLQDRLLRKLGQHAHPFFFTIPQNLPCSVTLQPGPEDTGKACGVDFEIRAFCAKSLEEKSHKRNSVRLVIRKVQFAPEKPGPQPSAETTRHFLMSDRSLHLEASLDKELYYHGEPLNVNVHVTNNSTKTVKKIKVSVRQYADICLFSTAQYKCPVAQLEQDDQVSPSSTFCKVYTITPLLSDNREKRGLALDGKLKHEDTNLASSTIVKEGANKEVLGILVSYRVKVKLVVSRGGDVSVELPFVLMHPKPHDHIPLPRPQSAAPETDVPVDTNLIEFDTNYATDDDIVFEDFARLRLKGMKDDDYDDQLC

The next data set deals with T1, Apelin Receptor (APJ) (Homo sapiens, UniProt P35414).
T1 construct: host or cells: CHO-K1 AGTRL1 Gi cells
T1 sequence (P35414 1-380): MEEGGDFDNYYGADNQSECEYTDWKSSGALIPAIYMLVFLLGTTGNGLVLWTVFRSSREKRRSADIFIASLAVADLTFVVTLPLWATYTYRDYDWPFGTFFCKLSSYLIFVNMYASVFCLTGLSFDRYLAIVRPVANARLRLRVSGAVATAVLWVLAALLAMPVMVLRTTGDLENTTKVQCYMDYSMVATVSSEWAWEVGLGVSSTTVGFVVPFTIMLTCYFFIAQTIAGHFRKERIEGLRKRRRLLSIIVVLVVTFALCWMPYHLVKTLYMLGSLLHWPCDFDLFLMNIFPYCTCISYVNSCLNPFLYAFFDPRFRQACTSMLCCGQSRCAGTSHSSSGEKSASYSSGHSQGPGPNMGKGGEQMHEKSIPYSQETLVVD
The experiment in a line: cell-based. The following applies: CHO-K1, 0.5 h, read-out: Percent of Pyr-Apelin-13 Control Activity. As to the method:
Peptides were initially prepared as 30 mM stock in DMSO and diluted to 3 mM in H2O or directly as 3 mM stock in H2O; used at a final concentration of 10 μM (0-0.1% DMSO).

The next data set in a line: in vitro. The following applies: human, pooled human plasma.
The subject of data set [1] is LPS-induced acute lung injury mouse model. The experiment in a line: LPS-induced acute lung injury model in mouse (Example 6). The format is in vivo, mice. The following applies: histopathology, 24 h after LPS, 5 mg/kg i.p. As to the method: The effect of the peptides of the current invention on acute lung injury can be assessed in an LPS-induced acute lung injury mouse model by monitoring outcomes such as lung weight, fluid accumulation, cytokine secretion in blood or bronchoalveolar lavage fluid (BALF), neutrophil infiltration into lung tissues, and assessment of acute lung injury score by histopathology. Acute lung injury was induced in male C57BL/6 mice (6 to 8 weeks old) by intratracheal administration of 40 μL lipopolysaccharide (LPS) (Sigma Aldrich, St. Louis, Mo.) in PBS at 5 mg/kg. Control animals received intratracheal PBS alone. […] Treatments were administered 1 h prior to LPS for animals designated for sacrifice at 4 h after LPS, or at both 1 h prior to and 6 h after LPS for animals designated for sacrifice at 24 h after LPS. At 4 or 24 hours post LPS administration, tissues were harvested. Lungs were weighed, flushed with Hanks Buffer to provide bronchoalveolar lavage fluid (BALF). Lungs were fixed in 10% neutral buffered formalin (NBF) for histopathology. Tissue slides were stained with hematoxylin and eosin (H&E) and evaluated and scored with light microscopy of 5 representative microscopic fields (100× magnification) scoring on a 0-5 scale using standard methods (Matute-Bello G et al 2011. An Official American Thoracic Society Workshop Report: Features and Measurements of Experimental Acute Lung Injury in Animals. Am J Respir Cell Mol Biol 44:725-38). The average score for five fields was calculated for each animal. Levels of pro-inflammatory cytokines in BALF were determined using a meso scale discovery (MSD) system. Data for test peptides were compared to the vehicle control group. Lung weights were normalized to body weight.

Square brackets hold non-standard residues; d marks the D form. Peptide text beside a SMILES is read from it. * marks the point of attachment. CH3O(CH2CH2O)11CH2CH2CO = COCCOCCOCCOCCOCCOCCOCCOCCOCCOCCOCCOCCC(=O)*

Description for in vitro: The metabolic stability of the peptides can be assessed in vitro by incubation in plasma and determination of the amount of peptide remaining over time. Peptides (50 μM) were incubated in pooled plasma from mice, monkeys, and humans at 37° C. Samples were removed at intervals up to 3 hours and immediately analyzed for the concentration of intact peptide by LC/MS/MS. The percent of peptide remaining in plasma at each time point was calculated relative to the initial peak area.

In the case of `CSCC[C@H](NC(=O)CNC(=O)[C@H](CCSC)NC(=O)[C@H](CCSC)NC(=O)[C@H](CCCNC(=N)N)NC(=O)[C@@H](N)CCCNC(=N)N)C(=O)N[C@H](C(=O)N[C@@H](Cc1ccccc1)C(=O)N[C@@H](CCC(N)=O)C(=O)N[C@@H](CO)C(=O)N[C@@H](CC(C)C)C(=O)N[C@@H](CS)C(=O)NCC(=O)N[C@H](C)C(=O)O)C(C)C` [compound 15], the Emax at 10 µM on human APJ amounted to 40%; on Apelin Receptor (APJ), 105%. Further, the fraction remaining – broadly, the share of the starting amount still present when the sample was taken – at 0.5 h, 50 μM in “in vitro” came to 24.3%.

As to `COCCOCCOCCOCCOCCOCCOCCOCCOCCOCCOCCOCCC(=O)N[C@@H](CCCCN)C(=O)N[C@@H](CCCNC(=N)N)C(=O)N[C@@H](CCCNC(=N)N)C(=O)N[C@@H](CCSC)C(=O)N[C@@H](CCSC)C(=O)NCC(=O)N[C@@H](CCSC)C(=O)N[C@H](C(=O)N[C@@H](Cc1ccccc1)C(=O)N[C@@H](CCC(N)=O)C(=O)N[C@@H](CO)C(=O)N[C@@H](CC(C)C)C(=O)N[C@@H](CS)C(=O)NCC(=O)N[C@H](C)C(=O)O)C(C)C` [compound 36], the Emax at 10 µM on human APJ turned out to be 63%; on Apelin Receptor (APJ), 101%.

Turning to `CSCC[C@H](NC(=O)CNC(=O)[C@H](CCSC)NC(=O)[C@H](CCSC)NC(=O)[C@H](CCCNC(=N)N)NC(=O)[C@@H](N)CCCNC(=N)N)C(=O)N[C@H](C(=O)N[C@@H](C)C(=O)N[C@@H](CCC(N)=O)C(=O)N[C@@H](CS)C(=O)N[C@@H](CC(C)C)C(=O)N[C@@H](CCC(=O)O)C(=O)NCC(=O)N[C@H](C)C(=O)O)C(C)C` [compound 30] (H-RRMMGMVAQCLEG[dA]-OH; N-terminus and C-terminus assumed), the figures for the Emax at 10 µM on human APJ and at Apelin Receptor (APJ) were -1% and 31%, respectively. The molecule also had an amount remaining at 0.5 h, 50 μM in the data set “in vitro” of 14.9%.

As for `CSCC[C@H](NC(=O)CNC(=O)[C@H](CCSC)NC(=O)[C@H](CCSC)NC(=O)[C@H](CCCNC(=N)N)NC(=O)[C@@H](N)CCCNC(=N)N)C(=O)N[C@H](C(=O)N[C@@H](C)C(=O)N[C@@H](CCC(N)=O)C(=O)N[C@@H](CS)C(=O)N[C@@H](CC(C)C)C(=O)N[C@@H](CS)C(=O)NCC(=O)N[C@H](C)C(=O)O)C(C)C` [compound 11], the Emax at 10 µM at human APJ is 0%; on Apelin Receptor (APJ), 49%. The same molecule displayed an amount remaining at 0.5 h, 50 μM in “in vitro” of 97.9%.

Regarding `CC[C@H](C)[C@H](NC(=O)CNC(=O)[C@@H](NC(=O)[C@@H](NC(=O)[C@H](CCCNC(=N)N)NC(=O)[C@H](CCCNC(=N)N)NC(=O)[C@H](CCCCN)NC(=O)CCOCCOCCOCCOCCOCCOCCOCCOCCOCCOCCOCCOC)[C@@H](C)CC)[C@@H](C)CC)C(=O)N[C@H](C(=O)N[C@@H](Cc1ccccc1)C(=O)N[C@@H](CCC(N)=O)C(=O)N[C@@H](CS)C(=O)N[C@@H](CC(C)C)C(=O)N[C@@H](CS)C(=O)NCC(=O)N[C@H](C)C(=O)O)C(C)C` [compound 42] ({CH3O(CH2CH2O)11CH2CH2CO}-KRRIIGIVFQCLCG[dA]-OH; N-terminus and C-terminus assumed), the Emax at 10 µM amounted to 8% on human APJ and 33% at Apelin Receptor (APJ).

As to `COCCOCCOCCOCCOCCOCCOCCOCCOCCOCCOCCOCCC(=O)N[C@@H](CCCCN)C(=O)N[C@@H](CCCNC(=N)N)C(=O)N[C@@H](CCCNC(=N)N)C(=O)N[C@@H](CCSC)C(=O)N[C@@H](CCSC)C(=O)NCC(=O)N[C@@H](CCSC)C(=O)N[C@H](C(=O)N[C@@H](Cc1ccccc1)C(=O)N[C@@H](CCC(N)=O)C(=O)N[C@@H](CS)C(=O)N[C@@H](CC(C)C)C(=O)N[C@@H](CS)C(=O)NCC(=O)N[C@H](C)C(=O)O)C(C)C` [compound 20], the Emax at 10 µM was 1% at human APJ and 37% at Apelin Receptor (APJ). The molecule further gave an amount remaining at 0.5 h, 50 μM in the data set “in vitro” of 75.3%.

Regarding `CSCC[C@H](NC(=O)[C@H](CCCNC(=N)N)NC(=O)[C@@H](N)CCCNC(=N)N)C(=O)N[C@@H](CCC(=O)O)C(=O)N[C@H](C(=O)N[C@@H](Cc1ccc(O)cc1)C(=O)N[C@@H](CCC(N)=O)C(=O)N[C@@H](CS)C(=O)N[C@@H](CC(C)C)C(=O)N[C@@H](CS)C(=O)NCC(=O)N[C@H](C)C(=O)O)C(C)C` [compound 31] (H-RRMEVYQCLCG[dA]-OH; N-terminus and C-terminus assumed), the Emax at 10 µM was 0% at human APJ and 2% at Apelin Receptor (APJ). Also, in the data set “in vitro”, the share remaining at 0.5 h, 50 μM came to 100%.

Take `COCCOCCOCCOCCOCCOCCOCCOCCOCCOCCOCCOCCC(=O)N[C@@H](CCCCN)C(=O)N[C@@H](CCCNC(=N)N)C(=O)N[C@@H](CCCNC(=N)N)C(=O)N[C@@H](CC(C)C)C(=O)N[C@@H](CC(C)C)C(=O)NCC(=O)N[C@@H](CC(C)C)C(=O)N[C@H](C(=O)N[C@@H](Cc1ccccc1)C(=O)N[C@@H](CCC(N)=O)C(=O)N[C@@H](CO)C(=O)N[C@@H](CC(C)C)C(=O)N[C@@H](CS)C(=O)NCC(=O)N[C@H](C)C(=O)O)C(C)C` [compound 37]: the results for the Emax at 10 µM at human APJ and on Apelin Receptor (APJ) were 12% and 53%, respectively.

On to `COCCOCCOCCOCCOCCOCCOCCOCCOCCOCCOCCOCCC(=O)NCCCC[C@H](NC(=O)[C@@H](C)NC(=O)CNC(=O)[C@H](CS)NC(=O)[C@H](CC(C)C)NC(=O)[C@H](CS)NC(=O)[C@H](CCC(N)=O)NC(=O)[C@H](Cc1ccccc1)NC(=O)[C@@H](NC(=O)[C@H](CCSC)NC(=O)CNC(=O)[C@H](CCSC)NC(=O)[C@H](CCSC)NC(=O)[C@H](CCCNC(=N)N)NC(=O)[C@@H](N)CCCNC(=N)N)C(C)C)C(=O)O` [compound 21], for which the Emax at 10 µM stood at 1% at human APJ and 34% on Apelin Receptor (APJ). The molecule further gave a fraction remaining at 0.5 h, 50 μM in the data set “in vitro” of 29.5%.

For the molecule “(PEG12)KRRMMGMVFQSLCG(dA) (KRRMMGMVFQSLCGA; N-terminal PEG12; C-terminal D-alanine; (1)..(1) PEG12; (15)..(15) D-Ala) [SEQ ID NO: 36]”, in data set [1] (0-5 scale), the “Mean (SEM) Alveolar Neutrophil Infiltration Score” value was 1.98 (0.18) and the “Mean (SEM) Interstitial Neutrophil Infiltration Score” value is 1.60 (0.14). Besides, the “Mean (SEM) Composite Lung Injury Score” value in data set [1] was 3.65 (0.28).
